Where two headings read alike, the source gives them in different places.
Key:
Class A ESBL CTXM-15 = biological target: T1, Class A ESBL CTXM-15 (Escherichia coli, UniProt Q9EXV5); assay: β-lactamase enzyme inhibition (nitrocefin hydrolysis), CTXM-15; type: biochemical; conditions: purified enzyme; nitrocefin 100 μM, PBS pH 7.0; read-out: CTXM-15 IC50 Range
T1 construct: made in house; host or cells: E. coli BL21(DE3)
Method in brief: (§1)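 Native untagged enzymes were expressed in E. coli BL21(DE3) and purified by cation exchange and gel filtration. Compound series (100–0.005 μM in PBS pH 7.0, before addition of an equal enzyme volume) were preincubated with enzyme 10 min at 37°C. Nitrocefin (100 μM final) hydrolysis was read kinetically at 486 nm for 10 min, and IC50 was taken as 50% reduction of initial rate versus no-inhibitor wells.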

Class C P99 AmpC = biological target: T2, Class C P99 AmpC (Enterobacter cloacae, UniProt P05364); type: biochemical; conditions: purified enzyme; nitrocefin 100 μM, PBS pH 7.0; read-out: P99 AmpC IC50 Range
T2 construct: made in house; host or cells: E. coli BL21(DE3)
Method in brief: as §1

Class A ESBL SHV-5 = biological target: T3, Class A ESBL SHV-5 (Klebsiella pneumoniae, UniProt P0A3M1); type: biochemical, E. coli; conditions: nitrocefin 100 μM, PBS pH 7.0, read-out: SHV-5 IC50 Range
T3 construct: made in house; host or cells: E. coli BL21(DE3) for purified enzyme; E. coli cells containing SHV-5 for extracts

[1] = system: E. cloacae expressing the Class C P99+ AmpC; assay: microbe, parasite or virus in culture; type: cell-based; conditions: in the presence of fixed 8 μg/mL Ceftazidime
From the text: (§2) To determine the ability of test compounds to potentiate the inhibition of the growth of bacterial strains producing beta-lactamase enzymes, classic cell based screening assays were employed. Four bacteria strains producing beta-lactamase enzymes were used: K. pneumoniae expressing the Class A Extended Spectrum Beta-Lactamase (ESBL) CTX-M-15, E. coli expressing the Class A ESBL SHV-5, E. cloacae expressing the Class C P99+, and K. pneumoniae expressing the Class A carbapenemase KPC-2. In order to evaluate the ability of test compounds to inhibit beta-lactamase activity, Applicants used a modification of the broth microdilution assay. The assay was conducted in Cation Adjusted Mueller Hinton Broth (CAMHB, BD # 212322, BD Diagnostic Systems, Sparks, Md.). Bacteria strains were grown for 3-5 hours in CAMBH broth. All four strains were grown in presence of 50 μg/mL ampicillin to ensure resistance is maintained. In the meantime, test compounds were diluted in DMSO to a 0.1 mg/mL stock. The compounds were added to a microtiter plate and were diluted in 2-fold serial dilutions in CAMHB in a final concentration range of 8 μg/mL to 0.015 μg/ml. An overlay of CAMHB containing a cephalosporin was added to the compounds at a final static concentration of 8 μg/ml. […] Each of these compound plates are made in quadruplicate, one for each bacteria strain. In addition to the titration of test compounds the MICs of a panel of cephalosporins is also tested to ensure the strains are behaving consistently from test to test. Once the test compound and cephalosporin are added the plates can be inoculated. Inocula are conducted according to CLSI broth microdilution method. After inoculation the plates are incubated for 16-20 hours at 37° C. then the Minimal Inhibitory Concentration (MIC) of the test compound is determined visually.

[2] = biological target: T4, Class A carbapenemase KPC-2 (Klebsiella pneumoniae, UniProt Q9F663); assay: β-lactamase enzyme inhibition (nitrocefin hydrolysis), KPC-2; type: biochemical; conditions: purified enzyme; nitrocefin 100 μM, PBS pH 7.0; read-out: KPC-2 IC50 Range
T4 construct: made in house; host or cells: E. coli BL21(DE3)
Method in brief: as §1

[3] = system: K. pneumoniae expressing the Class A carbapenemase KPC-2; assay: microbe, parasite or virus in culture; conditions: in the presence of fixed 8 μg/mL Ceftazidime
[4] = system: K. pneumoniae expressing the Class A ESBL CTX-M-15; assay: microbe, parasite or virus in culture; type: cell-based; conditions: in the presence of fixed 8 μg/mL Ceftazidime
[5] = system: E. coli expressing the Class A ESBL SHV-5; assay: microbe, parasite or virus in culture; type: cell-based; conditions: in the presence of fixed 8 μg/mL Ceftazidime
From the text: as §2

[6] = cellular extracts of E. coli containing SHV-5 (Examples 2-30)
[7] = purified beta-lactamase enzyme (Examples 1 and 31-64)

T2 sequence (P05364 21-381): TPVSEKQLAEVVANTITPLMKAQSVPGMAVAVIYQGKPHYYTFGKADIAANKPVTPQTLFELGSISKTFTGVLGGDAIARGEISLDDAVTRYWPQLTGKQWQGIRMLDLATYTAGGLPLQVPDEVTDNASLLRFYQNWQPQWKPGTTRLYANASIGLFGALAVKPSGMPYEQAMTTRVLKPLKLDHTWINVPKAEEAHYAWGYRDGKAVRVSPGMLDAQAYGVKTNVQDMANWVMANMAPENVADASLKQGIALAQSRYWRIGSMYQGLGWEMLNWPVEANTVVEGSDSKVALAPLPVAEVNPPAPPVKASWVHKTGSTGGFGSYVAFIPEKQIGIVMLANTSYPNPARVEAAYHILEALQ
T4 sequence (Q9F663 25-293 limits assumed): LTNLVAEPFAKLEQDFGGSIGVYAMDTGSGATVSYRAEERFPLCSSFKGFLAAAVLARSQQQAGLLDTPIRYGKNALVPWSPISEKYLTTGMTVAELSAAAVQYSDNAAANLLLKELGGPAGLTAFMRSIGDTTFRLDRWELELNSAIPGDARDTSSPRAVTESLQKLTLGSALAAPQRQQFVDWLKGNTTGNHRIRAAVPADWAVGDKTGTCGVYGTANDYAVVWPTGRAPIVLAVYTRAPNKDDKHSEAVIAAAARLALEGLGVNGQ
T3 sequence (P0A3M1 22-286): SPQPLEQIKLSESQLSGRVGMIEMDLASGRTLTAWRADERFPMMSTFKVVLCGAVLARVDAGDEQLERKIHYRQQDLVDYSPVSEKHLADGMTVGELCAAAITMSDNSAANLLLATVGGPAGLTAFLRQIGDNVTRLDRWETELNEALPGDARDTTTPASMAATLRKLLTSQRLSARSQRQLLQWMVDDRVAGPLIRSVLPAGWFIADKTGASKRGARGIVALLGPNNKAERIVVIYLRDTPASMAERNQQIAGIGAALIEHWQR
T1 sequence (Q9EXV5 entry or part of it): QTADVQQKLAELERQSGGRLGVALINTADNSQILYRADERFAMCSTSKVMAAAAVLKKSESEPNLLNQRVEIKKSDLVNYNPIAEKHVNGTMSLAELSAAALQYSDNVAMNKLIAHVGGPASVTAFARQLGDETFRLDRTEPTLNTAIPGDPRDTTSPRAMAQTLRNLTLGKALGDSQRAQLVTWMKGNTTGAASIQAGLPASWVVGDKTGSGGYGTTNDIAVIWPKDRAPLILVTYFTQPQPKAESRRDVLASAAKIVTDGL

Compound	IC50 (Class A ESBL CTXM-15)	IC50 (Class C P99 AmpC)	IC50 (Class A ESBL SHV-5; [6])	MIC of example compound, E. cloacae P99 AmpC + 8 μg/mL CAZ [1]	IC50 [2]	IC50 (Class A ESBL SHV-5; [7])	MIC of example compound, K. pneumoniae KPC-2 + 8 μg/mL CAZ [3]	MIC of example compound, K. pneumoniae CTX-M-15 + 8 μg/mL CAZ [4]	MIC of example compound, E. coli SHV-5 + 8 μg/mL CAZ [5]
O=C(Cc1cccs1)N[C@@H](Cc1ccc(C(=O)O)cc1O)B(O)O [Example 2, (1R)-1-(2-thiophene-2-yl-acetylamino)-2-(2-hydroxy-4-carboxyphenyl)ethyl-1-boronic acid]	100 to 1000 nM	100 to 1000 nM	10 to 100 nM	A (A represents an MIC >8 μg/mL)					
NCc1cccc(C(=O)N[C@@H](Cc2cccc(C(=O)O)c2O)B(O)O)c1.O=CO [Example 42, (1R)-1-(3-aminomethyl)-benzoylamino-1-(3-carboxy-2-hydroxy)benzyl-methyl boronic acid formate]	< 10 nM	< 10 nM		C (C represents an MIC of <1 μg/mL)	10 to 100 nM	100 to 1000 nM	C (C represents an MIC of <1 μg/mL)		
O=C(CCC(=O)c1cccs1)N[C@@H](Cc1cccc(C(=O)O)c1O)B(O)O [Example 5, (1R)-1-(4-Oxo-4-thiophen-2-yl-butyrylamino)-2-(2-hydroxy-3-carboxyphenyl)ethyl-1-boronic acid]	< 10 nM	< 10 nM	< 10 nM	C (C represents an MIC of <1 μg/mL)			C (C represents an MIC of <1 μg/mL)	C (C represents an MIC of <1 μg/mL)	
CC(C)C(=O)N[C@@H](Cc1cccc(C(=O)O)c1O)B(O)O [Example 14, (1R)-1-Isobutyrylamino-1-(3-carboxy-2-hydroxy)benzyl-methylboronic acid]	10 to 100 nM	< 10 nM	100 to 1000 nM	C (C represents an MIC of <1 μg/mL)			C (C represents an MIC of <1 μg/mL)	C (C represents an MIC of <1 μg/mL)	
O=C(N[C@@H](Cc1cccc(C(=O)O)c1O)B(O)O)c1cccs1 [Example 11, (1R)-1-(thiophene-2-carbonyl-amino)-2-(2-hydroxy-3-carboxyphenyl)ethyl-1-boronic acid]	< 10 nM	< 10 nM	10 to 100 nM	C (C represents an MIC of <1 μg/mL)			C (C represents an MIC of <1 μg/mL)	C (C represents an MIC of <1 μg/mL)	
O=C(Cc1cccs1)N[C@@H](Cc1cccc(C(=O)O)c1O)B(O)O [Example 1, (1R)-1-(2-thiophene-2-yl-acetylamino)-2-(2-hydroxy-3-carboxyphenyl)ethyl-1-boronic acid]	< 10 nM	< 10 nM			< 10 nM	< 10 nM	C (C represents an MIC of <1 μg/mL)	C (C represents an MIC of <1 μg/mL)	C (C represents an MIC of <1 μg/mL)
O=C(Cc1cccnc1)N[C@@H](Cc1cccc(C(=O)O)c1O)B(O)O.O=CO [Example 59, (1R)-1-(3-Pyridylacetylamino)-2-(2-hydroxy-3-carboxyphenyl)ethyl-1-boronic acid formate salt]	< 10 nM	< 10 nM			< 10 nM	< 10 nM	C (C represents an MIC of <1 μg/mL)	C (C represents an MIC of <1 μg/mL)	C (C represents an MIC of <1 μg/mL)
COc1cccc(C(=O)N[C@@H](Cc2cccc(C(=O)O)c2O)B(O)O)c1 [Example 29, (1R)-1-(3-methoxybenzoylamino)-2-(2-hydroxy-3-carboxyphenyl)ethyl-1-boronic acid]	< 10 nM	< 10 nM	10 to 100 nM		< 10 nM		C (C represents an MIC of <1 μg/mL)	C (C represents an MIC of <1 μg/mL)	C (C represents an MIC of <1 μg/mL)
CCCCCC(=O)N[C@@H](Cc1cccc(C(=O)O)c1O)B(O)O [Example 21, (1R)-1-Hexanoylamino-(3-carboxy-2-hydroxy)benzyl-methylboronic acid]	< 10 nM	< 10 nM	< 10 nM		< 10 nM		C (C represents an MIC of <1 μg/mL)	C (C represents an MIC of <1 μg/mL)	C (C represents an MIC of <1 μg/mL)
O=C(O)c1cccc(C[C@H](NC(=O)C2CCCC2)B(O)O)c1O [Example 15, (1R)-1-Cyclopentanecarbonylamino-(3-carboxy-2-hydroxy)benzyl-methylboronic acid]	10 to 100 nM	< 10 nM	100 to 1000 nM	C (C represents an MIC of <1 μg/mL)			C (C represents an MIC of <1 μg/mL)	C (C represents an MIC of <1 μg/mL)	
O=C(Cc1cc(Br)cs1)N[C@@H](Cc1cccc(C(=O)O)c1O)B(O)O [Example 9, (1R)-1-(2-(4-bromo-thiophen-2-nyl)acetylamino)-2-(2-hydroxy-3-carboxyphenyl)ethyl-1-boronic acid]	< 10 nM	< 10 nM	< 10 nM		10 to 100 nM		C (C represents an MIC of <1 μg/mL)	C (C represents an MIC of <1 μg/mL)	C (C represents an MIC of <1 μg/mL)
O=C(CO)N[C@@H](Cc1cccc(C(=O)O)c1O)B(O)O [Example 19, (1R)-1-Hydroxyacetylamino-1-(3-carboxy-2-hydroxy)benzyl-methyl boronic acid]	10 to 100 nM	100 to 1000 nM	100 to 1000 nM		10 to 100 nM		C (C represents an MIC of <1 μg/mL)	C (C represents an MIC of <1 μg/mL)	A (A represents an MIC >8 μg/mL)
